We go through 18 compounds from ChEMBL document CHEMBL1139709, “6-Hydroxy- and 6-methoxy-beta-carbolines as acetyl- and butyrylcholinesterase inhibitors” (Bioorg Med Chem Lett, 2006).

Test [1] has as its target Acetylcholinesterase (Homo sapiens, UniProt P22303). Description: Inhibition of AChE. The following applies: for pIC50: read-out: IC50.
In test [2] the target is Cholinesterase (Homo sapiens, UniProt P06276). The test can be described thus: Inhibition of BChE. The following applies: for pIC50: read-out: IC50.

Each structure is given as a SMILES string. pIC50: −log10 of the molar value. Where only a bound is given, the exact number is not on record here.

Cholinesterase, sequence (P06276 whole entry): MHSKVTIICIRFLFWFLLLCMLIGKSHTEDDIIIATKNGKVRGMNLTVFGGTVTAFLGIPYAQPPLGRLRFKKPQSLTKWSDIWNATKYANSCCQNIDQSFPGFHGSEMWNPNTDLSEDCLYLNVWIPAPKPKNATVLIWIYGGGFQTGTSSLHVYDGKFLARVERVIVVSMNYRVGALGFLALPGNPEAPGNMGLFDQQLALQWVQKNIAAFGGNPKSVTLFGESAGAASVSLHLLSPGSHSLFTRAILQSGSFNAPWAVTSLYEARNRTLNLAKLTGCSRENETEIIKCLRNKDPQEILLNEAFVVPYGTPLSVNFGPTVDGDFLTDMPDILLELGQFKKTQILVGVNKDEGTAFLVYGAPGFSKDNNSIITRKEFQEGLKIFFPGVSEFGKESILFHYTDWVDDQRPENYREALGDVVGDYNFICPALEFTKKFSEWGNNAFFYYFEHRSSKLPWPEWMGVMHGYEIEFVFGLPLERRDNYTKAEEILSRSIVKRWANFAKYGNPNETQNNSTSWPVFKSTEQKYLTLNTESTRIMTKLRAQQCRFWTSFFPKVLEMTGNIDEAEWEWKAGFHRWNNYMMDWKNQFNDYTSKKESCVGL
Acetylcholinesterase, sequence (P22303 whole entry): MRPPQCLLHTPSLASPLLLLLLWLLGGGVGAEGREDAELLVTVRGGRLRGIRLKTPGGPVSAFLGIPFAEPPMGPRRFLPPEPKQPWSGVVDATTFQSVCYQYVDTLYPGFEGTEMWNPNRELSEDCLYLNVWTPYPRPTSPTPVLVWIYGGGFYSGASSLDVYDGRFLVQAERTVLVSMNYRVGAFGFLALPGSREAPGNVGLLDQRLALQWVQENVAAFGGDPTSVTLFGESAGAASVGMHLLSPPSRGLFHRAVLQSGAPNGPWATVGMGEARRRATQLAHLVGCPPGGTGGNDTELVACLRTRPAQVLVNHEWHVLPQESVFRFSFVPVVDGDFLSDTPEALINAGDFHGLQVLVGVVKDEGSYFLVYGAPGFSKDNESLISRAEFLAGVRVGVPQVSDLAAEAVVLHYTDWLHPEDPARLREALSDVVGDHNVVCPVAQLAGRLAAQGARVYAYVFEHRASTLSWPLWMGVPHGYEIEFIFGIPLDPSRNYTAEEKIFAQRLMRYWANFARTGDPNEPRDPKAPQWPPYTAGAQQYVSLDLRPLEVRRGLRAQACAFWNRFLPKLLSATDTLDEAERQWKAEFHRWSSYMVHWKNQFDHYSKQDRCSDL

By pIC50 is commonly meant the negative decadic logarithm of the IC50, by convention in mol/L. `COc1ccc2[nH]c3c(C)nccc3c2c1`: the pIC50 in test [1] and in test [2] was below 5.00 each time.

A word on the IC50: it is the concentration that gives 50% inhibition. For `COc1ccc2c(c1)c1cc[n+](C)cc1n2C`, the figures for the pIC50 in test [1] and in test [2] were 5.89 and 4.68, respectively. In addition, in test [1] (read-out: Log IC50 (converted)), the IC50 was 1.4 µM.

Take `COc1ccc2[nH]c3c(C)[n+](C)ccc3c2c1`: the results for the pIC50 in test [1] and in test [2] were 6.10 and 5.92, respectively. The IC50 in test [2] (read-out: Log IC50 (converted)) is 1.1 µM.

For the compound `COc1ccc2c(c1)c1ccnc(C)c1n2C`, the pIC50 was 4.93 in test [1] and 4.76 in test [2].

As for `Cc1c2c(cc[n+]1C)c1cc(O)ccc1n2C`, the values for the pIC50 in test [1] and in test [2] were 5.72 and 5.57, respectively.

For the compound `Cc1nccc2c3cc(O)ccc3n(C)c12`, the pIC50 in test [1] and in test [2] was below 5.00 throughout.

On to `Cc1nccc2c1[nH]c1ccc(O)cc12`, for which the pIC50 in test [1] and in test [2] was below 5.00 in each case.

`COc1ccc2[nH]c3c(c2c1)CCNC3C` (stereo not drawn) [ADRENOGLOMERULOTROPIN]: the pIC50 in test [1] and in test [2] was below 5.00 in each case.

On to `COc1ccc2c(c1)c1ccncc1n2C`, for which the pIC50 in test [1] and in test [2] was below 5.00 each time.

Turning to `C[n+]1ccc2c(c1)[nH]c1ccc(O)cc12`, the pIC50 in test [1] was 5.38; in test [2], 5.06.

Regarding `Cn1c2ccc(O)cc2c2ccncc21`, the pIC50 in test [1] and in test [2] was below 5.00 each time.

As for `Cn1c2ccc(O)cc2c2cc[n+](C)cc21`, the pIC50 was 5.74 in test [1] and 4.49 in test [2].

On to `COc1ccc2[nH]c3c[n+](C)ccc3c2c1`, for which the results for the pIC50 in test [1] and in test [2] were 5.66 and 4.76, respectively.

For the compound `COc1ccc2[nH]c3cnccc3c2c1`, the pIC50 in test [1] and in test [2] was below 5.00 in each case.

As for `Oc1ccc2[nH]c3cnccc3c2c1`, the pIC50 in test [1] and in test [2] was below 5.00 in each case.

As for `Cc1c2[nH]c3ccc(O)cc3c2cc[n+]1C`, the pIC50 in test [1] is 6.00; in test [2], 5.80.

On to `COc1ccc2[nH]c3c(c2c1)CCNC3`, for which the pIC50 in test [1] and in test [2] was below 5.00 in each case.

Regarding `COc1ccc2c(c1)c1cc[n+](C)c(C)c1n2C`, the pIC50 in test [1] and in test [2] was below 5.00 throughout.
